Laboratory results: publication PMC12472947 (Pharmaceuticals, 2025)
Several values for one entry are separate records, joined by “and”; a condition that tells them apart may be missing. Equal entries are not always repeated. Where two headings read alike, the source gives them in different places.

How the values were obtained:
[1] = target: T1, equine serum BChE [EqBChE] (Equus caballus, UniProt P81908); assay: biochemical; details: Ellman method, read-out: IC50(nM) ± SD BChE (EqBChE)
T1 construct: equine serum BChE [EqBChE]; from tissue; host or cells: equine serum
Procedure: (§1) The anticholinesterase activity was determined using Ellman’s method, adapted as follows. […] Subsequently, 60 μL of 5,5′-dithiobis(2-nitrobenzoic acid) (DTNB, 1.1 mM) and 30 μL of enzyme solution (electric eel AChE [EeAChE], human AChE [hAChE], or equine serum BChE [EqBChE], 0.20 U/mL) containing 1 mg/mL bovine serum albumin (BSA) were added. […] Enzyme activity was calculated as the percentage relative to untreated controls, subtracting the blank reference. IC50 values were derived via non-linear regression analysis of dose–response curves (Figure S4) using GraphPad Prism v7.0.

[2] = target: electric eel AChE [EeAChE] (Electrophorus electricus, UniProt O42275); assay: biochemical; format: biochemical; details: for IC50: Electric eel AChE, Ellman method, read-out: IC50(nM) ± SD AChE (EeAChE); for SI: Selectivity Index = EqBChE IC50/EeAChE IC50
Procedure: as §1

[3] = test system: H2O2-damaged SH-SY5Y cells; assay: In vitro neuroprotection against H2O2 in SH-SY5Y (MTT)
Procedure: For the neuroprotection assay, the cells previously cultured (Section 3.4.1) were seeded in 96-well plates at a density of 5 × 10^4 cells/well in a volume of 200 µL. The plates were incubated at 37 °C containing 5% CO2 for 24 h. After 24 h, the medium was replaced with the test solutions. […] Finally, the test solutions were removed, the cells were washed with PBS pH 7.4, and the H2O2 solution was added and maintained in contact with the cells for 24 h. After 24 h exposure, the neuroprotective capacity was assessed through cell viability using the MTT assay protocol previously described in Section 3.4.3 [52, 53].

[4] = test system: SH-SY5Y neuroblastoma cells; assay: Cytotoxicity (neurotoxicity) MTT assay in SH-SY5Y; format: cell-based; details: up to 50 µM
Procedure: (§2) The immortalized human neuroblastoma cell line (SH-SY5Y–ATCC: CRL-2226; BCRJ:0223) was used to evaluate cytotoxicity. The cell line was cultured in Dulbecco’s Modified Eagle’s Medium and F12 in a 1:1 ratio (DMEM:F12; Sigma-Aldrich code 0697, Brazil) supplemented with 10% fetal bovine serum (FBS; Sigma-Aldrich code F2442, Brazil) and 1% streptomycin/penicillin (10,000 U/mL and 10,000 μg/mL, respectively; Nova Biotecnologia code BR30110-01, Cotia, SP, Brazil) and incubated at 37 °C with 5% CO2. The culture medium was replaced every 48 h, until the cells reached semi-confluence (≥70%). Cell passage was carried out with the aid of trypsin-EDTA/0.25% solution (Nova Biotecnologia, Brazil) and divided between 5 or 8 mL culture volumes depending on the respective bottles (25 or 75 cm^2) used.
(§3) The in vitro cytotoxicity assay evaluated cell viability using the [3-(4,5-dimethylthiazol-2yl)-2,5-diphenyl tetrazolium] bromide (MTT) reduction assay. Cells were seeded at an initial density of 5.0 × 10^4 cells/well in 96-well plates in a volume of 200 µL. […] In the next step, the culture medium was replaced by the sample solution previously described (Section 3.4.2). After 24 h exposure, the medium was replaced with 100 μL of MTT in phosphate-buffer saline (PBS), pH 7.4, at a concentration of 0.5 mg.mL^−1/well and the plates were incubated for an additional 3 h. Then, the MTT solution was removed, and 100 μL of DMSO was added to solubilize the formazan crystals. The cell viability was measured by absorbance at 562 nm using a Microplate Absorbance Reader (Kasuaki, Brazil). All concentrations tested were evaluated in nine replicates (n = 9). The variation in results was observed using ANOVA followed by Tukey’s test for multiple comparisons through GraphPad Prism v5^TM with a significance level of p < 0.05.

[5] = Cytotoxicity (neurotoxicity) MTT assay in SH-SY5Y; format: cell-based; details: human, SH-SY5Y neuroblastoma cells
Procedure: as §2, §3

[6] = target: electric eel acetylcholinesterase (EeAChE) (Electrophorus electricus, UniProt O42275); assay: Enzymatic kinetic study, EeAChE; format: biochemical; details: AChE
Procedure: (§4) The enzymatic kinetics of cholinesterase inhibition were determined according to an adapted Ellman’s method. All of the solutions were prepared at 20 °C in 0.02 M Tris-HCl buffer (pH 7.5; ionic strength ~0.02 M), stock solutions of test compounds were prepared in DMSO:EtOH (7:3) mixture (20 mM), and the experiment was conducted in triplicate. To a flat-bottom 96-well transparent plate (path length of 0.6 cm) were added 150 μL of treatment solutions with inhibitors 1a, 1h, and 1j at two different concentrations (Table S1) distributed in eight sets of triplicate each. Eight sets of untreated triplicates were used as a negative control. Following, there were added 60 μL of 5,5′-Dithiobis(2-nitrobenzoic acid) (DTNB, Ellman’s reagent) at 1.1 mM and 30 μL of electric eel acetylcholinesterase (EeAChE) or equine serum butyrylcholinesterase (EqBuChE) at 0.20 U/mL in the presence of 1 mg/mL bovine serum albumin (BSA). […] Ki, Ki’ (competitive and noncompetitive inhibition constants, respectively), Km (Michaelis-Menten constant), and Vmax values were calculated with Graphpad Prism v7.0 using the non-linear regression models for enzyme kinetics inhibition and enzyme kinetics–substrate vs. velocity.

[7] = target: T2, equine serum butyrylcholinesterase (EqBuChE) (Equus caballus, UniProt P81908); assay: Enzymatic kinetic study, EqBChE; format: biochemical; details: BChE
T2 construct: equine serum BChE [EqBChE]; from tissue; host or cells: equine serum
Procedure: as §4

[8] = enzyme-substrate complex, global non-linear regression (Table 2)
[9] = global non-linear regression, mixed inhibition (Table S3)

Sequence of electric eel AChE [EeAChE] (O42275 24-633): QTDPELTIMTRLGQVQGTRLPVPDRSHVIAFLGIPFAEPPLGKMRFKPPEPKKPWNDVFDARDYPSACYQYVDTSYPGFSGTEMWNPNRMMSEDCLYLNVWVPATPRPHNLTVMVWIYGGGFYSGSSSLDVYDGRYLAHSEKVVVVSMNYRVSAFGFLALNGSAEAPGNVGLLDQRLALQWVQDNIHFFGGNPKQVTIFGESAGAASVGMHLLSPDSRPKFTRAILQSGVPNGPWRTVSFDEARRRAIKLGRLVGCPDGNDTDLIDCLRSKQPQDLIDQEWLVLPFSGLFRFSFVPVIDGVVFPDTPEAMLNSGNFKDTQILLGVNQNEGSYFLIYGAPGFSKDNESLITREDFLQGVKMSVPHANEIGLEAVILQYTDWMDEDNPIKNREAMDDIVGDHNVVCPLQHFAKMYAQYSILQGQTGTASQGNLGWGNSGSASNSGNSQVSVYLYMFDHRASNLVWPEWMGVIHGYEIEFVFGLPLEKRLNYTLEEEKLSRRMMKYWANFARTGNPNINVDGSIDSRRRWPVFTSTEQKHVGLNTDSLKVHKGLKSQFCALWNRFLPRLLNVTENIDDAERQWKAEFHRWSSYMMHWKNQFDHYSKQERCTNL
Sequence of electric eel acetylcholinesterase (EeAChE) (O42275 24-633): as above
T1 sequence (P81908 whole entry): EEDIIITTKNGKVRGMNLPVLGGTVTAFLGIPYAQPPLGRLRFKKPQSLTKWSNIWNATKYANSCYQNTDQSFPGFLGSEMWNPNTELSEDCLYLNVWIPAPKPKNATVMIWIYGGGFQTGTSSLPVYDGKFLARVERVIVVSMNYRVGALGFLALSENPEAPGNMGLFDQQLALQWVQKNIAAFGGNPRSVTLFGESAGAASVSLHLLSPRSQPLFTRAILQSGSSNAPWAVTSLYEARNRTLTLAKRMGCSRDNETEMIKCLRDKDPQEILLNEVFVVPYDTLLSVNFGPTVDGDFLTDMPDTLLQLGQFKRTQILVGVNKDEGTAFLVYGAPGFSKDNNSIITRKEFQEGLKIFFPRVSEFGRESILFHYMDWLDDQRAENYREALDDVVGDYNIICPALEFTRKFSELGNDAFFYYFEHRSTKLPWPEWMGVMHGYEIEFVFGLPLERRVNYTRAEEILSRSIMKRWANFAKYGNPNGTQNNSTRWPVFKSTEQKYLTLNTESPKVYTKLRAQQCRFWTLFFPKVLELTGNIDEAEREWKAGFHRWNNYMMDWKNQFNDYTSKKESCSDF
T2 sequence (P81908 whole entry): as above

| SMILES | IC50 [1] | IC50 [2] | SI [2] | also measured |
| --- | --- | --- | --- | --- |
| CC1CCN(CCOc2ccc3cc(-c4cn(-c5ccccc5)nn4)c(=O)oc3c2)CC1 [Compound 1e, 7-(2-(4-Methylpiperidin-1-yl)ethoxy)-3-(1-phenyl-1H-1,2,3-triazol-4-yl)-2H-chromen-2-one] | 11100 nM | 1690 ± 75 nM | ~7 |  |
| O=c1oc2cc(OCCN3CCCCC3)ccc2cc1-c1cn(Cc2ccc(F)cc2)nn1 [Compound 1l, 3-(1-(4-Fluorbenzyl)-1H-1,2,3-triazol-4-yl)-7-(2-(piperidin-1-yl)ethoxy)-2H-chromen-2-one] | 4120 ± 110 nM | 23.4 ± 1.77 nM | 176 |  |
| O=c1oc2cc(OCCCCCN3CCCCC3)ccc2cc1-c1cn(-c2ccccc2)nn1 [Compound 1d, 3-(1-Phenyl-1H-1,2,3-triazol-4-yl)-7-((5-(piperidin-1-yl)pentyl)oxy)-2H-chromen-2-one] | 3540 ± 81 nM | 4790 ± 290 nM | ~1 |  |
| O=c1oc2cc(OCCN3CCCCC3)ccc2cc1-c1cn(Cc2ccc(Cl)cc2)nn1 [Compound 1n, 3-(1-(4-Chlorobenzyl)-1H-1,2,3-triazol-4-yl)-7-(2-(piperidin-1-yl)ethoxy)-2H-chromen-2-one] | 2240 ± 60 nM | 104 ± 5.4 nM |  |  |
| O=c1oc2cc(OCCN3CCCCC3)ccc2cc1-c1cn(Cc2ccc(Br)cc2)nn1 [Compound 1p, 3-(1-(4-Bromobenzyl)-1H-1,2,3-triazol-4-yl)-7-(2-(piperidin-1-yl)ethoxy)-2H-chromen-2-one] | 1140 ± 70 nM | 12.9 ± 0.96 nM | 88 |  |
| O=c1oc2cc(OCCN3CCCCC3)ccc2cc1-c1cn(Cc2cccc(Cl)c2)nn1 [Compound 1m] | 1950 ± 120 nM | 13.1 ± 0.83 nM | 149 |  |
| O=c1oc2cc(OCCN3CCNCC3)ccc2cc1-c1cn(-c2ccccc2)nn1 [Compound 1g, 3-(1-Phenyl-1H-1,2,3-triazol-4-yl)-7-(2-(piperazin-1-yl)ethoxy)-2H-chromen-2-one] | 9840 ± 130 nM | 1060 ± 74 nM | ~8 |  |
| COc1ccc(Cn2cc(-c3cc4ccc(OCCN5CCCCC5)cc4oc3=O)nn2)cc1 [Compound 1k, 3-(1-(4-Methoxybenzyl)-1H-1,2,3-triazol-4-yl)-7-(2-(piperidin-1-yl)ethoxy)-2H-chromen-2-one] | 2080 ± 99 nM | 4.58 ± 0.62 nM | 443 | neuroprotection against H2O2-induced oxidative stress ([3]; 12.5 µM): neuroprotective effects; viability at 12.5 µM ([3]; Homo sapiens, SH-SY5Y, read-out: Cell viability (% of control)): 92%; neurotoxicity [4]: non-neurotoxic; viability at 24 h, 12.5 µM ([5]; 12.5 μM, 24 h, MTT, read-out: Cell viability (% of control)): 99%; viability at 24 h, 25 µM ([5]; 25.0 μM, 24 h, MTT, read-out: Cell viability (% of control)): 106%; viability at 24 h, 50 µM ([5]; 50.0 μM, 24 h, MTT, read-out: Cell viability (% of control)): 84%; viability at 24 h ([5]; up to 25 μM, read-out: cell viability): ≥ 70% |
| O=c1oc2cc(OCCN3CCCCC3)ccc2cc1-c1cn(Cc2cccc(Br)c2)nn1 [Compound 1o, 3-(1-(3-Bromobenzyl)-1H-1,2,3-triazol-4-yl)-7-(2-(piperidin-1-yl)ethoxy)-2H-chromen-2-one] | 2090 ± 54 nM | 7.92 ± 0.48 nM | 265 |  |
| CN1CCN(CCOc2ccc3cc(-c4cn(-c5ccccc5)nn4)c(=O)oc3c2)CC1 [Compound 1f, 7-(2-(4-Methylpiperazin-1-yl)ethoxy)-3-(1-phenyl-1H-1,2,3-triazol-4-yl)-2H-chromen-2-one] | 8140 ± 890 nM | 3160 ± 76 nM | 3 |  |
| O=c1oc2cc(OCCN3CCCCC3)ccc2cc1-c1cn(-c2ccccc2)nn1 [Compound 1a, 3-(1-Phenyl-1H-1,2,3-triazol-4-yl)-7-(2-(piperidin-1-yl)ethoxy)-2H-chromen-2-one] | 8660 ± 150 nM | 50 ± 2.04 nM | 173 | inhibition mechanism ([6]; Lineweaver-Burk plots): mixed-type inhibition; Ki′ ± SE (95% CI) ([6]; enzyme-substrate complex (Table S3)): 61.59 ± 20.04 nM; Ki’ (nM) ± SE [6, 8]: 61.59 ± 20.04 nM; Ki ([6]; free enzyme, global non-linear regression to mixed-inhibition equation (Table 2), read-out: Ki (nM) ± SE): 30.8 ± 5.38 nM; α ± SE (95% CI) [6, 9]: 2.001 ± 0.6489; Vmax ± SD ([6]; inhibitor 0.02 μM): 2.78 ± 0.044 1 × 10^3 nM/min and 2.78 ± 0.04 1 × 10^3 nM/min; Vmax ± SD ([6]; inhibitor 0.06 μM): 2.06 ± 0.031 1 × 10^3 nM/min and 2.06 ± 0.03 1 × 10^3 nM/min; inhibition mechanism ([7]; Lineweaver-Burk plots): mixed-type inhibition; Ki ([7]; competitive inhibition constant (Table S2), read-out: Ki (nM) ± SD): 3500 ± 64.9 nM; Ki’ (nM) ± SE [7, 8]: 11,400 ± 1100 nM; Ki ([7]; free enzyme (Table S3), read-out: Ki ± SE (95% CI)): 3940 ± 227 nM; Ki ([7]; free enzyme, global non-linear regression (Table 2), read-out: Ki (nM) ± SE): 3940 ± 230 nM; α ± SE (95% CI) [7, 9]: 2.883 ± 0.3970; Vmax ± SD ([7]; inhibitor 4 μM): 11.69 ± 0.201 1 × 10^3 nM/min and 11.69 ± 0.20 1 × 10^3 nM/min; Vmax ± SD ([7]; inhibitor 8 μM): 8.24 ± 0.212 1 × 10^3 nM/min and 8.24 ± 0.21 1 × 10^3 nM/min |
| COc1ccccc1Cn1cc(-c2cc3ccc(OCCN4CCCCC4)cc3oc2=O)nn1 [Compound 1i, 3-(1-(2-Methoxybenzyl)-1H-1,2,3-triazol-4-yl)-7-(2-(piperidin-1-yl)ethoxy)-2H-chromen-2-one] | 2810 ± 230 nM | 15.3 ± 0.25 nM | 184 |  |
| O=c1oc2cc(OCCCCN3CCCCC3)ccc2cc1-c1cn(-c2ccccc2)nn1 [Compound 1c, 3-(1-Phenyl-1H-1,2,3-triazol-4-yl)-7-(4-(piperidin-1-yl)butoxy)-2H-chromen-2-one] | 2410 ± 29 nM | 1110 ± 10 nM | ~2 |  |
